Results reported in ChEMBL document CHEMBL2016493, “Design, synthesis, synergistic antimicrobial activity and cytotoxicity of 4-aryl substituted 3,4-dihydropyrimidinones of curcumin” (Bioorg Med Chem Lett, 2012).
The source made the active and inactive calls. The rule behind the calls is not given here.

Key:
[1] = tested on: Aspergillus niger; test: Antifungal activity against Aspergillus niger MTCC 1108 at 80 uM/ml after 48 hrs by paper disc diffusion method; format: functional; conditions: for zone of inhibition at 80 µM: MTCC 1108, 48 h, read-out: IZ
[2] = tested on: Burkholderia pseudomallei; test: Antibacterial activity against Burkholderia pseudomallei NTCC 10274 at 160 uM/ml after 24 hrs by kirby-bauer method; format: functional; conditions: for zone of inhibition at 160 µM: NTCC 10274, 24 h, read-out: IZ
[3] = tested on: Salmonella typhimurium; test: Antibacterial activity against Salmonella typhimurium ATCC 23564 at 80 uM/ml after 24 hrs by kirby-bauer method; format: functional
[4] = tested on: Salmonella typhimurium; test: Antibacterial activity against Salmonella typhimurium ATCC 23564 at 40 uM/ml after 24 hrs by kirby-bauer method; format: functional; conditions: Salmonella enterica subsp. enterica serovar Typhimurium
[5] = tested on: Aspergillus flavus; test: Antifungal activity against Aspergillus flavus MTCC 1021 at 160 uM/ml after 48 hrs by paper disc diffusion method; format: functional; conditions: for zone of inhibition at 160 µM: MTCC 1021, 48 h, read-out: IZ
[6] = tested on: Curvularia lunata; test: Antifungal activity against Curvularia lunata MTCC 581 at 160 uM/ml after 48 hrs by paper disc diffusion method; format: functional; conditions: MTCC 581, 48 h, read-out: IZ
[7] = tested on: Aspergillus flavus; test: Antifungal activity against Aspergillus flavus MTCC 1021 at 20 uM/ml after 48 hrs by paper disc diffusion method; format: functional
[8] = tested on: Pseudomonas aeruginosa; test: Antibacterial activity against Pseudomonas aeruginosa ATCC 15499 at 40 uM/ml after 24 hrs by kirby-bauer method; format: functional
[9] = tested on: Pseudomonas aeruginosa; test: Antibacterial activity against Pseudomonas aeruginosa ATCC 15499 at 80 uM/ml after 24 hrs by kirby-bauer method; format: functional; conditions: for zone of inhibition at 80 µM: ATCC 15499, 24 h, read-out: IZ
[10] = tested on: Aspergillus flavus; test: Antifungal activity against Aspergillus flavus MTCC 1021 at 40 uM/ml after 48 hrs by paper disc diffusion method; format: functional
[11] = tested on: Salmonella typhimurium; test: Antibacterial activity against Salmonella typhimurium ATCC 23564 at 160 uM/ml after 24 hrs by kirby-bauer method; format: functional, Salmonella enterica subsp. enterica serovar Typhimurium; conditions: for zone of inhibition at 160 µM: Salmonella enterica, ATCC 23564, 24 h, read-out: IZ
[12] = tested on: Pseudomonas aeruginosa; test: Antibacterial activity against Pseudomonas aeruginosa ATCC 15499 at 20 uM/ml after 24 hrs by kirby-bauer method; format: functional
[13] = tested on: Trichoderma viride; test: Antifungal activity against Trichoderma viride MTCC 1107 at 40 uM/ml after 48 hrs by paper disc diffusion method; format: functional; conditions: MTCC 1107, 48 h, read-out: IZ
[14] = tested on: Curvularia lunata; test: Antifungal activity against Curvularia lunata MTCC 581 at 20 uM/ml after 48 hrs by paper disc diffusion method; format: functional; conditions: MTCC 581, 48 h, read-out: IZ
[15] = tested on: Aspergillus niger; test: Antifungal activity against Aspergillus niger MTCC 1108 at 160 uM/ml after 48 hrs by paper disc diffusion method; format: functional; conditions: MTCC 1108, 48 h, read-out: IZ
[16] = tested on: Escherichia coli; test: Antibacterial activity against Escherichia coli ATCC 35218 at 160 uM/ml after 24 hrs by kirby-bauer method; format: functional; conditions: for zone of inhibition at 160 µM: ATCC 35218, 24 h, read-out: IZ
[17] = tested on: Staphylococcus aureus; test: Antibacterial activity against Staphylococcus aureus ATCC 11632 at 40 uM/ml after 24 hrs by kirby-bauer method; format: functional
[18] = tested on: Staphylococcus aureus; test: Antibacterial activity against Staphylococcus aureus ATCC 11632 at 20 uM/ml after 24 hrs by kirby-bauer method; format: functional
[19] = tested on: Pseudomonas aeruginosa; test: Antibacterial activity against Pseudomonas aeruginosa ATCC 15499 at 160 uM/ml after 24 hrs by kirby-bauer method; format: functional; conditions: ATCC 15499, 24 h, read-out: IZ
[20] = tested on: Burkholderia pseudomallei; test: Antibacterial activity against Burkholderia pseudomallei NTCC 10274 at 40 uM/ml after 24 hrs by kirby-bauer method; format: functional
[21] = tested on: Burkholderia pseudomallei; test: Antibacterial activity against Burkholderia pseudomallei NTCC 10274 at 80 uM/ml after 24 hrs by kirby-bauer method; format: functional; conditions: NTCC 10274, 24 h, read-out: IZ
[22] = tested on: Curvularia lunata; test: Antifungal activity against Curvularia lunata MTCC 581 at 80 uM/ml after 48 hrs by paper disc diffusion method; format: functional; conditions: MTCC 581, 48 h, read-out: IZ
[23] = tested on: Staphylococcus aureus; test: Antibacterial activity against Staphylococcus aureus ATCC 11632 at 80 uM/ml after 24 hrs by kirby-bauer method; format: functional; conditions: ATCC 11632, 24 h, read-out: IZ
[24] = tested on: Aspergillus niger; test: Antifungal activity against Aspergillus niger MTCC 1108 at 40 uM/ml after 48 hrs by paper disc diffusion method; format: functional; conditions: for zone of inhibition at 40 µM: MTCC 1108, 48 h, read-out: IZ
[25] = tested on: QG-56; test: Cytotoxicity against human QG56 cells after 48 hrs by MTT assay; format: functional, cell-based
[26] = tested on: Trichoderma viride; test: Antifungal activity against Trichoderma viride MTCC 1107 at 160 uM/ml after 48 hrs by paper disc diffusion method; format: functional; conditions: MTCC 1107, 48 h, read-out: IZ
[27] = tested on: Trichoderma viride; test: Antifungal activity against Trichoderma viride MTCC 1107 at 80 uM/ml after 48 hrs by paper disc diffusion method; format: functional; conditions: MTCC 1107, 48 h, read-out: IZ
[28] = tested on: Aspergillus niger; test: Antifungal activity against Aspergillus niger MTCC 1108 at 20 uM/ml after 48 hrs by paper disc diffusion method; format: functional
[29] = tested on: HCT-116
[30] = tested on: HepG2
[31] = tested on: Staphylococcus aureus; test: Antibacterial activity against Staphylococcus aureus ATCC 11632 at 160 uM/ml after 24 hrs by kirby-bauer method; format: functional; conditions: ATCC 11632, 24 h, read-out: IZ
[32] = tested on: Salmonella typhimurium; test: Antibacterial activity against Salmonella typhimurium ATCC 23564 at 20 uM/ml after 24 hrs by kirby-bauer method; format: functional; conditions: Salmonella enterica subsp. enterica serovar Typhimurium
[33] = tested on: Aspergillus flavus; test: Antifungal activity against Aspergillus flavus MTCC 1021 at 80 uM/ml after 48 hrs by paper disc diffusion method; format: functional
[34] = tested on: Curvularia lunata; test: Antifungal activity against Curvularia lunata MTCC 581 at 40 uM/ml after 48 hrs by paper disc diffusion method; format: functional; conditions: MTCC 581, 48 h, read-out: IZ
[35] = tested on: Burkholderia pseudomallei; test: Antibacterial activity against Burkholderia pseudomallei NTCC 10274 at 20 uM/ml after 24 hrs by kirby-bauer method; format: functional
[36] = tested on: Trichoderma viride; test: Antifungal activity against Trichoderma viride MTCC 1107 at 20 uM/ml after 48 hrs by paper disc diffusion method; format: functional; conditions: MTCC 1107, 48 h, read-out: IZ
[37] = tested on: Escherichia coli; test: Antibacterial activity against Escherichia coli ATCC 35218 at 40 uM/ml after 24 hrs by kirby-bauer method; format: functional; conditions: ATCC 35218, 24 h, read-out: IZ
[38] = tested on: Escherichia coli; test: Antibacterial activity against Escherichia coli ATCC 35218 at 20 uM/ml after 24 hrs by kirby-bauer method; format: functional; conditions: ATCC 35218, 24 h, read-out: IZ
[39] = tested on: Escherichia coli; test: Antibacterial activity against Escherichia coli ATCC 35218 at 80 uM/ml after 24 hrs by kirby-bauer method; format: functional; conditions: ATCC 35218, 24 h, read-out: IZ
[40] = Salmonella enterica subsp. enterica serovar Typhimurium

| SMILES | zone of inhibition at 80 µM [1] | zone of inhibition at 160 µM [2] | zone of inhibition at 160 µM [6] | zone of inhibition [13] | zone of inhibition at 20 µM [14] | zone of inhibition at 160 µM [15] | inhibition zone (IZ) [17] | inhibition zone (IZ) [18] | zone of inhibition at 160 µM [19] | zone of inhibition at 80 µM [22] | zone of inhibition at 80 µM [23] | IC50 [25] | zone of inhibition at 160 µM [26] | zone of inhibition at 80 µM [27] | inhibition zone (IZ) [28] | IC50 [29] | IC50 [30] | zone of inhibition at 160 µM [31] | zone of inhibition at 40 µM [34] | zone of inhibition at 20 µM [36] | other results |
| --- | --- | --- | --- | --- | --- | --- | --- | --- | --- | --- | --- | --- | --- | --- | --- | --- | --- | --- | --- | --- | --- |
| COc1cc(/C=C/C(=O)C2=C(/C=C/c3ccc(O)c(OC)c3)NC(=S)NC2c2ccc([N+](=O)[O-])cc2)ccc1O (stereo not given) | 11 mm | 11 mm | 21 mm | 18 mm | 14 mm | 13 mm | inactive | inactive | 10 mm | 19 mm | 10 mm | 50 uM/ml | 22 mm | 21 mm | inactive | 100 uM/ml | 50 uM/ml | 12 mm | 17 mm | 17 mm | inhibition zone (IZ) [3, 40]: inactive; inhibition zone (IZ) [4]: inactive; zone of inhibition at 160 µM [5]: 11 mm; inhibition zone (IZ) [7]: inactive; inhibition zone (IZ) [8]: inactive; zone of inhibition at 80 µM [9]: 9 mm; inhibition zone (IZ) [10]: inactive; zone of inhibition at 160 µM [11]: 10 mm; inhibition zone (IZ) [12]: inactive; inhibition zone (IZ) [16]: inactive; inhibition zone (IZ) [20]: inactive; zone of inhibition at 80 µM [21]: 9 mm; zone of inhibition at 40 µM [24]: 9 mm; inhibition zone (IZ) [32]: inactive; inhibition zone (IZ) [33]: inactive; inhibition zone (IZ) [35]: inactive |
| COc1cc(/C=C/C(=O)C2=C(/C=C/c3ccc(O)c(OC)c3)NC(=S)NC2c2ccc(O)cc2)ccc1O (stereo not given) | 11 mm | 19 mm | 24 mm | 14 mm | 20 mm | 14 mm | inactive | inactive | 18 mm | 22 mm | 10 mm | 50 uM/ml | 20 mm | 17 mm | inactive | 50 uM/ml | 100 uM/ml | 12 mm | 21 mm | 11 mm | zone of inhibition at 40 µM [37]: 17 mm; zone of inhibition at 160 µM [5]: 15 mm; zone of inhibition at 20 µM ([7]; MTCC 1021, 48 h, read-out: IZ): 9 mm; zone of inhibition at 40 µM ([8]; ATCC 15499, 24 h, read-out: IZ): 12 mm; zone of inhibition at 80 µM [9]: 14 mm; zone of inhibition at 40 µM ([10]; MTCC 1021, 48 h, read-out: IZ): 11 mm; inhibition zone (IZ) [11, 40]: inactive; zone of inhibition at 20 µM ([12]; ATCC 15499, 24 h, read-out: IZ): 9 mm; zone of inhibition at 160 µM [16]: 22 mm; zone of inhibition at 40 µM ([20]; NTCC 10274, 24 h, read-out: IZ): 16 mm; zone of inhibition at 80 µM [21]: 17 mm; zone of inhibition at 40 µM [24]: 9 mm; zone of inhibition at 20 µM [38]: 13 mm; zone of inhibition at 80 µM [39]: 18 mm; zone of inhibition at 80 µM ([33]; MTCC 1021, 48 h, read-out: IZ): 13 mm; zone of inhibition at 20 µM ([35]; NTCC 10274, 24 h, read-out: IZ): 14 mm |
| COc1cc(/C=C/C(=O)C2=C(/C=C/c3ccc(O)c(OC)c3)NC(=O)NC2c2ccc(Cl)cc2)ccc1O (stereo not given) |  |  | 22 mm | 17 mm | 9 mm | 12 mm | inactive | inactive | 9 mm | 18 mm | 10 mm | 100 uM/ml | 18 mm | 17 mm | inactive | 100 uM/ml | 100 uM/ml | 12 mm | 12 mm | 15 mm | inhibition zone (IZ) [1]: inactive; inhibition zone (IZ) [2]: inactive; zone of inhibition at 80 µM ([3]; Salmonella enterica, ATCC 23564, 24 h, read-out: IZ): 9 mm; zone of inhibition at 40 µM [37]: 11 mm; inhibition zone (IZ) [4]: inactive; inhibition zone (IZ) [5]: inactive; inhibition zone (IZ) [8]: inactive; inhibition zone (IZ) [9]: inactive; zone of inhibition at 160 µM [11]: 11 mm; inhibition zone (IZ) [12]: inactive; zone of inhibition at 160 µM [16]: 19 mm; inhibition zone (IZ) [24]: inactive; zone of inhibition at 20 µM [38]: 9 mm; zone of inhibition at 80 µM [39]: 16 mm; inhibition zone (IZ) [32]: inactive |
